Columns and labels:
FMS kinase = molecular target: T1, FMS kinase (Homo sapiens, UniProt P07333); assay: FMS Kinase Assay; assay type: biochemical; settings: read-out: FMS Enzyme Assay
T1 construct: purchased Invitrogen or Millipore
Experimental: (§1) In this assay, the oxidation of NADH (thus the decrease at A340 nm) was continuously monitored spectrophometrically. The reaction mixture (100 μl) contained FMS (purchased from Invitrogen or Millipore, 6 nM), polyE4Y (1 mg/ml), MgCl2 (10 mM), pyruvate kinase (4 units), lactate dehydrogenase (0.7 units), phosphoenol pyruvate (1 mM) and NADH (0.28 mM) and ATP (500 μM) in a 90 mM Tris buffer containing 0.2% octyl-glucoside and 1% DMSO, pH 7.5. The inhibition reaction was started by mixing serial diluted test compound with the above reaction mixture. The absorption at 340 nm was monitored continuously for 4 hours at 30° C. on a Polarstar Optima or Synergy 2 plate reader. The reaction rate was calculated using the 2 to 3 h time frame. Percent inhibition was obtained by comparison of reaction rate with that of a control (i.e. with no test compound). IC50 values were calculated from a series of percent inhibition values determined at a range of inhibitor concentrations using software routines as implemented in the GraphPad Prism software package.

PDGFRβ = molecular target: T2, PDGFRβ (Homo sapiens, UniProt P09619); assay: PDGFRβ Kinase Assay; assay type: biochemical; settings: read-out: PDGFRb Enzyme Assay
T2 construct: purchased Invitrogen

PDGFRα kinase = molecular target: T3, PDGFRα kinase (Homo sapiens, UniProt P16234); assay: PDGFRα Kinase Assay; assay type: biochemical; settings: read-out: PDGFRa Enzyme Assay
T3 construct: purchased Invitrogen
Experimental: as §1, with “Activity of PDGFRα kinase was determined by following the production of ADP from the kinase reaction through coupling with the pyruvate kinase/lactate dehydrogenase system. In” for “In”, “PDGFRα (Invitrogen, 10” for “FMS (purchased from Invitrogen or Millipore, 6”

[1] = molecular target: T4, c-KIT kinase (Seq. ID no. 1) (Homo sapiens, UniProt P10721); assay: c-KIT kinase Assay (ADP production, pyruvate kinase/lactate dehydrogenase coupled); assay type: biochemical; settings: read-out: cKIT Enzyme Assay
T4 construct: purchased ProQinase
Experimental: In this assay, the oxidation of NADH (thus the decrease at A340 nm) was continuously monitored spectrophometrically. […] The absorption at 340 nm was monitored continuously for 0.5 hours at 30° C. on Polarstar Optima plate reader (BMG). The reaction rate was calculated using the 0 to 0.5 h time frame. Percent inhibition was obtained by comparison of reaction rate with that of a control (i.e. with no test compound). IC50 values were calculated from a series of percent inhibition values determined at a range of inhibitor concentrations using software routines as implemented in the GraphPad Prism software package.

[2] = molecular target: KDR kinase (Seq ID No. 3) (Homo sapiens, UniProt P35968, DEL940-989/E990V); assay: KDR Kinase Assay (assays K1, K2, K3); assay type: biochemical; settings: assay variant K1, K2 or K3 not stated; read-out: KDR Enzyme Assay
[3] = molecular target: T5, c-MET kinase (Seq. ID no. 2) (Homo sapiens, UniProt P08581); assay: c-MET Kinase Assay (ADP production, pyruvate kinase/lactate dehydrogenase coupled); assay type: biochemical; settings: read-out: cMET Enzyme Assay
T5 construct: purchased Invitrogen PV3143
Experimental: In this assay, the oxidation of NADH (thus the decrease at A340 nm) was continuously monitored spectrophometrically. […] Test compounds were incubated with C-Met (Seq. ID no. 2) and other reaction reagents at 22° C. for 0.5 h before ATP (100 μM) was added to start the reaction. The absorption at 340 nm was monitored continuously for 2 hours at 30° C. on Polarstar Optima plate reader (BMG). The reaction rate was calculated using the 1.0 to 2.0 h time frame. Percent inhibition was obtained by comparison of reaction rate with that of a control (i.e. with no test compound). IC50 values were calculated from a series of percent inhibition values determined at a range of inhibitor concentrations using software routines as implemented in the GraphPad Prism software package.

EBC-1 cells = assay: EBC-1 Cell Proliferation Assay (resazurin); assay type: cell-based; settings: Homo sapiens, 67 h + 5 h resazurin, read-out: EBC1 Cell Proliferation
Experimental: EBC-1 cells (catalog #JCRB0820) were obtained from the Japan Health Science Research Resources Bank, Osaka, Japan. Briefly, cells were grown in DMEM supplemented with 10% characterized fetal bovine serum (Invitrogen, Carlsbad, Calif.) at 37 degrees Celsius, 5% CO2, 95% humidity. Cells were allowed to expand until reaching 70-95% confluency at which point they were subcultured or harvested for assay use.
EBC-1 Cell Proliferation Assay
A serial dilution of test compound was dispensed into a 96-well black clear bottom plate (Corning, Corning, N.Y.). For each cell line, five thousand cells were added per well in 200 μL complete growth medium. Plates were incubated for 67 hours at 37 degrees Celsius, 5% CO2, 95% humidity. […] Data was analyzed using Prism software (Graphpad, San Diego, Calif.) to calculate IC50 values.

Sequence of KDR kinase (Seq ID No. 3) (P35968 with tags, fused parts or gaps DEL940-989/E990V): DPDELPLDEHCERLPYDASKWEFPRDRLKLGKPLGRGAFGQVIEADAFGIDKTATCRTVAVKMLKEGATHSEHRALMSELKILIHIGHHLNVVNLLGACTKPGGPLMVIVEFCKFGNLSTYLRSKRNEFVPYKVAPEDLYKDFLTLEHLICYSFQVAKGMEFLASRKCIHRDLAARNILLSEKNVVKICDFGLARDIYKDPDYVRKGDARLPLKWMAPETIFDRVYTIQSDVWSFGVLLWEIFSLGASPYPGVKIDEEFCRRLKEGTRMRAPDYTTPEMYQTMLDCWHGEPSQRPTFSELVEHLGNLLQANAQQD
T4 sequence (P10721 with tags, fused parts or gaps): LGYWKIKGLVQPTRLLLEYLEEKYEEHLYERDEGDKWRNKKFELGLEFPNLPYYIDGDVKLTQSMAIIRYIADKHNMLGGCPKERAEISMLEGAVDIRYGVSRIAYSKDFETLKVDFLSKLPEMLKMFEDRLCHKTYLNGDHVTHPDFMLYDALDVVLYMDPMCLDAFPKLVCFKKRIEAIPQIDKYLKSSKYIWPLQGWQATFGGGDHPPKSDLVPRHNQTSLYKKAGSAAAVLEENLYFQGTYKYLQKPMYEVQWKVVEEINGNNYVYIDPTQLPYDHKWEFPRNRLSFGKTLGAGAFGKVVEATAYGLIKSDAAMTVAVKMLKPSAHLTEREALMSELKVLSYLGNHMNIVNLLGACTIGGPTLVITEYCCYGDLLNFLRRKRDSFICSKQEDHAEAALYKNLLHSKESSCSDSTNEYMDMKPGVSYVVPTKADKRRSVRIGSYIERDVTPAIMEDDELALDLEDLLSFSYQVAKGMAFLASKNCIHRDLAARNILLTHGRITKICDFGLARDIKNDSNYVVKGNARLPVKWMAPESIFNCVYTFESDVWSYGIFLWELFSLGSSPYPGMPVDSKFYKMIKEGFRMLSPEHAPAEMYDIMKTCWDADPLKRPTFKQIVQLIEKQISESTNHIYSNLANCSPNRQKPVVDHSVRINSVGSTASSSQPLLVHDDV
T1 sequence (P07333 20-972): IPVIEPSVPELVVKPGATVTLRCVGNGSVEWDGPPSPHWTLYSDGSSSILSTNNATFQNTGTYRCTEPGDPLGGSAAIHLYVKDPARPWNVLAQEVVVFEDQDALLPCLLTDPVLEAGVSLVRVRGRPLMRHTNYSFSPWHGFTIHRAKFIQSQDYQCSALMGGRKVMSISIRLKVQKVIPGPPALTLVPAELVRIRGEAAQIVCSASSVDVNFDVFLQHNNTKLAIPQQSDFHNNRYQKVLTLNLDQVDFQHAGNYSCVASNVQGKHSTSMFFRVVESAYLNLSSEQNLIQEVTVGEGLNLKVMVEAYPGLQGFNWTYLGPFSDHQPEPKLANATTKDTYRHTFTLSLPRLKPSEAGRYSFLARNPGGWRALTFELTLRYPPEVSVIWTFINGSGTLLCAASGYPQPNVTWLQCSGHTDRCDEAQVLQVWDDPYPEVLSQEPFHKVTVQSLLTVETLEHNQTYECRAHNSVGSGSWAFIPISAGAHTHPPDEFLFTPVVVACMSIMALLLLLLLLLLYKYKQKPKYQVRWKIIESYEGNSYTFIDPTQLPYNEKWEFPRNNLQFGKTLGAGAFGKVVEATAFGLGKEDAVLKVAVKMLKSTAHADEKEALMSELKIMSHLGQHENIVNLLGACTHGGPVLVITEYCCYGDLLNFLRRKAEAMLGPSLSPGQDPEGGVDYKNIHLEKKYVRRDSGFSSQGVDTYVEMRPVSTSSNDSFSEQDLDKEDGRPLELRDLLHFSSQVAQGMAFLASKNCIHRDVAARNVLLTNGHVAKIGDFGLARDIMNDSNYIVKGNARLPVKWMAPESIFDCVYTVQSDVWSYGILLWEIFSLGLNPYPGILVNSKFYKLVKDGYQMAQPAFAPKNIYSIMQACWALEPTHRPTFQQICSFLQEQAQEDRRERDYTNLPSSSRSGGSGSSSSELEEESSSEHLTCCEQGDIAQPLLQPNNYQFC
T5 sequence (P08581 with tags, fused parts or gaps): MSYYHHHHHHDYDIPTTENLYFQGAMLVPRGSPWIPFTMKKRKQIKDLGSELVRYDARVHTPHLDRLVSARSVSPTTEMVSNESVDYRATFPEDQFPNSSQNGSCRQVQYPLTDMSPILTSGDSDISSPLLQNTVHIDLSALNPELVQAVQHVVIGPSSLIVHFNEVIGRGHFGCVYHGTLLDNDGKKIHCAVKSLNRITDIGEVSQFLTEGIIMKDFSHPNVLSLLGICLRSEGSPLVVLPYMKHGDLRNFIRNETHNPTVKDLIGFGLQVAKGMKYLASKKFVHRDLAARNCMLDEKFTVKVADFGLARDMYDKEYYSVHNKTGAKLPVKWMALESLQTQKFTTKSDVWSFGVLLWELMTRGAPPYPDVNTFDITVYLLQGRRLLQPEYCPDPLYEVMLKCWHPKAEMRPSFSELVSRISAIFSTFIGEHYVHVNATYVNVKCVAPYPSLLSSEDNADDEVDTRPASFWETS
T2 sequence (P09619 33-1106): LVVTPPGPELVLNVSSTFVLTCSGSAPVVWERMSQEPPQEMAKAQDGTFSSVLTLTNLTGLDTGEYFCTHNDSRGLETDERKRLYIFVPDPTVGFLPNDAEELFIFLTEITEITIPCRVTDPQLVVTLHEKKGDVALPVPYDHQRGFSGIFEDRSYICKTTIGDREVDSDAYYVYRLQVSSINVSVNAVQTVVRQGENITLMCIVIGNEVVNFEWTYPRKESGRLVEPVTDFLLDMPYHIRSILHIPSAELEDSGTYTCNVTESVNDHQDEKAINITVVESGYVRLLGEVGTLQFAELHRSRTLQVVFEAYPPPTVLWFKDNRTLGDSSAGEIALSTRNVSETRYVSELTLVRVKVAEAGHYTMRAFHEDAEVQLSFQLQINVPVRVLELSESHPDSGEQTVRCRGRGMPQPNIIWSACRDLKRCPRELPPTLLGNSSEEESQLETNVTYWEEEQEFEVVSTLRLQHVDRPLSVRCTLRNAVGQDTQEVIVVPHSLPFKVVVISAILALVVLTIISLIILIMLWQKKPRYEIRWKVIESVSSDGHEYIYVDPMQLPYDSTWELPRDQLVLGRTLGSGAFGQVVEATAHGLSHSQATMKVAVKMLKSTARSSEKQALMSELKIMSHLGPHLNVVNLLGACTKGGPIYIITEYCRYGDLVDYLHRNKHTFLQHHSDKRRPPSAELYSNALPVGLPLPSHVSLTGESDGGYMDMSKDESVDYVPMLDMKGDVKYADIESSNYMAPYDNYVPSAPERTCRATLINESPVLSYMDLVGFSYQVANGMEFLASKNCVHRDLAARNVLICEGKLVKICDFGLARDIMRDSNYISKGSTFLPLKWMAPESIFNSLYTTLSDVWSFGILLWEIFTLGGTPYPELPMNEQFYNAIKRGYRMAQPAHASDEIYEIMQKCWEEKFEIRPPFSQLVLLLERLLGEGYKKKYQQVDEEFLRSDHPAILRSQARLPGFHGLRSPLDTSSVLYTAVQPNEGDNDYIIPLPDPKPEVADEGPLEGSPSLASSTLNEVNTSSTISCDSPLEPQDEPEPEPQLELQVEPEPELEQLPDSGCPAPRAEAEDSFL
T3 sequence (P16234 24-1089): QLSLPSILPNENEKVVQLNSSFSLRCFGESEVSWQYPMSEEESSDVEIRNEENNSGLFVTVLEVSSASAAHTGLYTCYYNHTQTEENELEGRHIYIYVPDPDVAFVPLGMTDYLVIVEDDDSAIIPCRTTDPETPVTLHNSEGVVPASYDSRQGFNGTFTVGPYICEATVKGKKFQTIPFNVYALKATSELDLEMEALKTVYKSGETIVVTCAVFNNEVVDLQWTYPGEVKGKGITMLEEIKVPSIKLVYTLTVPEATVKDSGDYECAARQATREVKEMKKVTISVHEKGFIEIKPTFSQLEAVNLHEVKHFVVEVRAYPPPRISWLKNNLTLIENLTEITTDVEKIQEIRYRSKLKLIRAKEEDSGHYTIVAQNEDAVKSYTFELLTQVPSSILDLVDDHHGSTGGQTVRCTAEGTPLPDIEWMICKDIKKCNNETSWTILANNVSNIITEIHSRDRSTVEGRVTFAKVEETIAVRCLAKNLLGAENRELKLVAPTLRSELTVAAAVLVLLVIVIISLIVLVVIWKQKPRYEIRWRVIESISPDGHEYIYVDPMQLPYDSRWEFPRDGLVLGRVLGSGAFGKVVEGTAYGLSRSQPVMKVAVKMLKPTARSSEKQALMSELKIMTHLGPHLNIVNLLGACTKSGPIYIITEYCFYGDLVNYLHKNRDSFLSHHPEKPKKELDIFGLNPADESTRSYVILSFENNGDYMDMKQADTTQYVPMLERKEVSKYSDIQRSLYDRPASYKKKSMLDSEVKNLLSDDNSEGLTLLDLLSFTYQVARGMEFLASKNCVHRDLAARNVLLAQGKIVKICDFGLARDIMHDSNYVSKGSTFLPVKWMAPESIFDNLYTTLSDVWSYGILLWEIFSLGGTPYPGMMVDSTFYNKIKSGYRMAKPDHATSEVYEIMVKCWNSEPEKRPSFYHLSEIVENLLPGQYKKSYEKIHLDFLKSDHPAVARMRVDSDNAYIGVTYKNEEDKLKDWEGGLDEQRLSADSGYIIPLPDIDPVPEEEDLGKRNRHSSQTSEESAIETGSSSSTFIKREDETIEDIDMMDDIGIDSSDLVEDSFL

Compound | IC50 (FMS kinase) [µM] | IC50 (PDGFRβ) [µM] | IC50 (PDGFRα kinase) [µM] | IC50 [1] [µM] | IC50 [2] [µM] | IC50 [3] [µM] | IC50 (EBC-1 cells) [µM]
Cn1cc(-c2cc(Oc3ccc(NC(=O)C4(C(=O)NCc5ccccc5)CC4)cc3F)ccn2)cn1 [Example 4, N-benzyl-N′-(3-fluoro-4-(2-(1-methyl-1H-pyrazol-4-yl)pyridin-4-yloxy)phenyl)cyclopropane-1,1-dicarboxamide] | < 0.2 | < 10 | < 10 | < 2 | < 2 | – | –
O=C(Nc1ccc(F)cc1)C1(C(=O)Nc2cc(Oc3nccc(-c4cn[nH]c4)n3)ccc2F)CC1 [Example 55, N-(5-(4-(1H-pyrazol-4-yl)pyrimidin-2-yloxy)-2-fluorophenyl)-N′-(4-fluorophenyl)cyclopropane-1,1-dicarboxamide] | < 10 | < 10 | < 10 | < 10 | < 10 | < 10 | –
C[C@@H](NC(=O)C1(C(=O)Nc2ccc(Oc3ccnc(-c4cnn(C)c4)c3)c(F)c2)CC1)c1ccccc1 [Example 17, N-(3-fluoro-4-(2-(1-methyl-1H-pyrazol-4-yl)pyridin-4-yloxy)phenyl)-N′-((R)-1-phenylethyl)cyclopropane-1,1-dicarboxamide] | < 0.2 | < 10 | < 10 | < 2 | < 10 | – | –
Cn1cc(-c2cc(Oc3cc(F)c(NC(=O)C4(C(=O)Nc5ccc(F)cc5)CC4)cc3Cl)ccn2)cn1 [Example 47, N-(5-chloro-2-fluoro-4-(2-(1-methyl-1H-pyrazol-4-yl)pyridin-4-yloxy)phenyl)-N′-(4-fluorophenyl)cyclopropane-1,1-dicarboxamide] | – | < 10 | < 0.2 | < 0.2 | < 2 | < 0.2 | < 0.2
O=C(Nc1ccc(F)cc1)C1(C(=O)Nc2ccc(Oc3ccnc(-c4cn[nH]c4)c3)c(F)c2)CC1 [Example 31, N-(4-(2-(1H-pyrazol-4-yl)pyridin-4-yloxy)-3-fluorophenyl)-N′-(4-fluorophenyl)cyclopropane-1,1-dicarboxamide] | – | – | – | – | – | < 0.2 | < 2
C[C@H](NC(=O)C1(C(=O)Nc2ccc(Oc3ccnc(-c4cnn(C)c4)c3)c(F)c2)CC1)c1ccccc1 [Example 16, N-(3-fluoro-4-(2-(1-methyl-1H-pyrazol-4-yl)pyridin-4-yloxy)phenyl)-N′-((S)-1-phenylethyl)cyclopropane-1,1-dicarboxamide] | < 0.2 | < 10 | < 2 | < 0.2 | < 10 | – | < 10
1-(2,3-difluoro-4-(2-(1H-pyrazol-4-yl)pyridin-4-yloxy)phenyl)-3-(2-(4-fluorophenyl)acetyl)urea [Example 43] | < 0.2 | < 2 | < 0.2 | < 2 | < 10 | < 2 | –
Cc1c(-c2cc(Oc3cc(F)c(NC(=O)C4(C(=O)Nc5ccc(F)cc5)CC4)cc3F)ccn2)cnn1C [Example 50, N-(4-(2-(1,5-dimethyl-1H-pyrazol-4-yl)pyridin-4-yloxy)-2,5-difluorophenyl)-N′-(4-fluorophenyl)cyclopropane-1,1-dicarboxamide] | – | < 10 | < 2 | < 0.2 | < 0.2 | < 0.2 | < 0.2
Cn1cc(-c2cc(Oc3cc(F)c(NC(=O)NC(=O)Cc4ccc(F)cc4)cc3Cl)ccn2)cn1 [Example 46, 1-(5-chloro-2-fluoro-4-(2-(1-methyl-1H-pyrazol-4-yl)pyridin-4-yloxy)phenyl)-3-(2-(4-fluorophenyl)acetyl)urea] | – | < 0.2 | < 0.2 | < 0.2 | < 2 | < 0.2 | < 0.2
CCn1cc(-c2cc(Oc3ccc(NC(=O)C4(C(=O)Nc5ccc(F)cc5)CC4)cc3F)ccn2)cn1 [Example 19, N-(4-(2-(1-ethyl-1H-pyrazol-4-yl)pyridin-4-yloxy)-3-fluorophenyl)-N′-(4-fluorophenyl)cyclopropane-1,1-dicarboxamide] | – | – | – | – | – | – | < 2
O=C(Nc1ccc(F)cc1)C1(C(=O)Nc2ccc(Oc3ccnc(-c4cnn(CCO)c4)c3)c(F)c2)CC1 [Example 21, N-(3-fluoro-4-(2-(1-(2-hydroxyethyl)-1H-pyrazol-4-yl)pyridin-4-yloxy)phenyl)-N′-(4-fluorophenyl)cyclopropane-1,1-dicarboxamide] | – | < 10 | < 2 | < 2 | < 2 | < 2 | < 2
CCCn1cc(-c2cc(Oc3ccc(NC(=O)C4(C(=O)Nc5ccc(F)cc5)CC4)cc3F)ccn2)cn1 [Example 20, N-(3-fluoro-4-(2-(1-propyl-1H-pyrazol-4-yl)pyridin-4-yloxy)phenyl)-N′-(4-fluorophenyl)cyclopropane-1,1-dicarboxamide] | – | – | – | – | – | – | < 2
Cn1cc(-c2cc(Oc3c(F)cc(NC(=O)NC(=O)Cc4ccc(F)cc4)cc3F)ccn2)cn1 [Example 48, 1-(3,5-difluoro-4-(2-(1-methyl-1H-pyrazol-4-yl)pyridin-4-yloxy)phenyl)-3-(2-(4-fluorophenyl)acetyl)urea] | < 10 | < 10 | < 10 | < 2 | < 2 | < 10 | –
Cn1cc(-c2cc(Oc3ccc(NC(=O)C4(C(=O)Nc5ccc(F)cc5)CC4)cc3Cl)ccn2)cn1 [Example 30, N-(3-chloro-4-(2-(1-methyl-1H-pyrazol-4-yl)pyridin-4-yloxy)phenyl)-N′-(4-fluorophenyl)cyclopropane-1,1-dicarboxamide] | – | < 10 | < 2 | < 0.2 | – | < 0.2 | < 2
Cn1cc(-c2cc(Oc3ccc(NC(=O)C4(C(=O)Nc5cccc(C(F)(F)F)c5)CC4)cc3F)ccn2)cn1 [Example 6, N-(3-fluoro-4-(2-(1-methyl-1H-pyrazol-4-yl)pyridin-4-yloxy)phenyl)-N′-(3-(trifluoromethyl)phenyl)cyclopropane-1,1-dicarboxamide] | < 2 | < 10 | < 2 | < 10 | < 0.2 | – | < 10
Cc1c(Oc2ccnc(-c3cnn(C)c3)c2)ccc(NC(=O)C2(C(=O)Nc3ccc(F)cc3)CC2)c1F [Example 32, N-(2-fluoro-3-methyl-4-(2-(1-methyl-1H-pyrazol-4-yl)pyridin-4-yloxy)phenyl)-N-(4-fluorophenyl)cyclopropane-1,1-dicarboxamide] | < 2 | – | – | – | < 10 | < 2 | –

— patent US8486951B2 (Deciphera Pharmaceuticals, LLC, priority 2008, dated 2013)
